Reference: PubChem BioAssay (NCI)
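In this assay, cells in 96-well plates receive the compound at five concentrations for 48 hours. Endpoints are linearly interpolated between the surrounding concentrations. TGI denotes the concentration required for complete inhibition of growth.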

How the values were obtained:
Assay in all cases: growth of human tumour cells (NCI), 48 h
[1] = test system: NCI-H226 lung
[2] = test system: HT29 colon
[3] = test system: TK-10 renal
[4] = test system: OVCAR-4 ovarian
[5] = test system: A549 NSCLC
[6] = test system: PC-3 prostate
[7] = test system: EKVX NSCLC
[8] = test system: OVCAR-3 ovarian
[9] = test system: CCRF-CEM leukemia

Row | SMILES | TGI [1] [µM] | TGI [2] [µM] | TGI [3] [µM] | TGI [4] [µM] | TGI [5] [µM] | TGI [6] [µM] | TGI [7] [µM] | TGI [8] [µM] | TGI [9] [µM]
1 | COC1CCC(OC2CC(C3(C)CCC4(CC(O)C(C)C(C(C)/C=C(\C)C(=O)C(C)CC(C)C(=O)O)O4)O3)OC3(OC(C4OC(O)(CO)C(C)CC4C)CC3C)C2C)OC1C (stereo not given) | 3.13 | 2.19 | 5.79 | 10.3 | 1.97 | 3.14 | 9.64 | 2.58 | 0.509
2 | COc1cc(C2c3cc4c(cc3OC(N3CCOCC3)C2C)OCO4)cc(OC)c1O (stereo not given) | > 66.3 | 27.7 | 70.6 | > 100 | > 59.9 | > 86.2 | > 94 | > 34 | > 100
3 | Cc1cc2ccccc2c[n+]1CC(=O)CC([O-])(C(F)(F)F)C(F)(F)F | > 100 | > 100 |  | > 100 | > 100 | > 100 | > 100 | > 100 | > 100
4 | CCOC(=O)/C=C(/C(=O)OCC)n1cc(C)c(=O)n(Cc2cnnn2CCCCOC(C)=O)c1=O | > 100 | 34.3 | 26.7 | > 100 | > 100 | > 100 | 49.3 | 32.2 | 4.57
5 | CC(C)n1c(=O)c2nn3c(=O)n(C(C)C)c(=O)c3nn2c1=O | > 100 | > 100 | > 100 | > 100 | > 100 | > 100 | > 100 | > 100 | > 100
6 | O=S1(=O)c2ccccc2N2CCCc3cc(Cl)cc1c32 | > 100 | > 100 |  | > 100 | > 100 | > 100 | > 100 | > 100 | > 100
7 | CO[P@]1(=O)O[C@@H](c2ccccc2)[C@H](O)[C@]1(O)c1ccccc1 | > 100 | > 100 | > 100 | > 100 | > 100 | > 100 | > 100 | > 100 | > 100
8 | O=C1CC(O)c2c(Cl)sc(Cl)c21 (stereo not given) | 36.6 | 10 | 30.1 | 54.3 | 36.2 | 28.5 | 37.2 | 12.9 | 4.68
9 | CC(=O)Nc1ccc(Nc2nc(=O)[nH]c(=O)[nH]2)cc1 | > 100 | > 100 | > 100 | > 100 | > 100 | > 100 | > 100 | > 100 | > 100
10 | C=C(Br)CN(C#N)CC(=C)Br | > 100 | > 100 | > 100 | > 100 | > 100 | > 100 | > 100 | > 100 | > 100
11 | COc1ccc(CN=CN/C(C#N)=C(\N)C#N)cc1OC | > 100 | > 100 | > 100 | > 100 | > 100 | > 100 | > 100 | > 100 | > 100
12 | S=C1CC(c2ccc(Cl)cc2)Sc2ccccc2N1 (stereo not given) | > 100 | > 100 | > 100 | > 100 | > 100 | > 100 | > 100 | 68 | > 100
13 | COc1ccc2c(c1)CC[C@@H]1[C@@H]2CC[C@]2(C)/C(=N/OCCN3CCCCC3)CC[C@@H]12 | 18.7 | 3.67 | 14.4 | 27.2 | 19.8 | 17.7 | 21.5 | 15 | 10.4
14 | O=C1CC(c2cccc(Cl)c2)n2cccc21 (stereo not given) | > 100 | > 100 | > 100 | > 100 | > 100 | > 100 |  | > 100 | > 100
15 | Clc1ccc(OCc2nnc(CCCCCCCCc3nnc(COc4ccc(Cl)cc4Cl)o3)o2)c(Cl)c1 | > 100 | > 100 | > 100 | > 100 | > 100 | > 100 | > 100 |  | 
16 | COC(=O)CC1C2CC3C(C2=O)C13 (stereo not given) | > 100 | > 100 | > 100 | > 100 | > 100 | > 100 | > 100 | > 100 | > 100
17 | CCCCNC(=S)Nc1nc(C(=O)NNS(=O)(=O)c2ccccc2)cs1 |  |  | 99.9 |  | > 100 | 93.1 | > 100 | 54.2 | > 100
18 | COc1cccc(/C=C/C2=NN(c3cccc(S(=O)(=O)O)c3)C3(C2)SCC(=O)N3c2nc3ccccc3s2)c1 (stereo not given) | > 100 | > 100 | 81.1 | > 100 | > 100 | > 100 | > 100 |  | 88.3
19 | CC1(C)N=C(N)N=C(N)N1c1cccc(CSc2ccccc2)c1 | > 100 | > 100 | > 100 | > 100 | > 100 | > 100 | > 100 | > 100 | 
20 | CCN(CC)C(=O)CCCCCCCCC1CO1 (stereo not given) | > 100 | > 100 | > 100 | > 100 | > 100 | > 100 | > 100 | > 100 | > 100
21 | COc1ccc(-c2cc(-c3ccc(Nc4ccnc5cc(Cl)ccc45)cc3)nc(N)c2C#N)c2ccccc12 | > 100 | > 100 | > 100 | > 100 | > 100 | > 100 | > 100 |  | > 100
22 | Cc1nn(-c2ccccc2)c(C)c1/C=N/NC(=O)c1sc(=S)n(-c2ccccc2)c1N | 79.1 | 19.7 | 7.19 | 8.74 | 34.8 | > 100 | 8.17 | > 100 | > 100
23 | COc1cccc(-c2cc(=O)c3cc(C)cnc3[nH]2)c1 | 0.339 | 0.191 | > 100 | > 100 |  | > 100 | > 100 | > 100 | > 100
